Data as given in US11498899B2, “Nitrone herbicides” (FMC Corporation, priority 2016, dated 2022).

Assays:
[1] = system: barnyardgrass (Echinochloa crus-galli); experiment: Test A preemergence, visual injury rating 0-100 (0 no effect, 100 complete control); type: in vivo
rice (Oryza sativa) = experiment: Test B flooded paddy test, visual rating 0-100 (0 no effect, 100 complete control); conditions: Flood, 250 g ai/ha, applied to paddy water, rated after 13 to 15 days
[2] = system: ryegrass, Italian (Italian ryegrass, Lolium multiflorum); experiment: Test A preemergence, visual injury rating 0-100; type: in vivo
kochia (Kochia scoparia) [3] = experiment: Test A preemergence, visual injury rating 0-100; type: in vivo
[4] = system: pigweed (Amaranthus retroflexus); experiment: Test A preemergence, visual injury rating 0-100; type: in vivo
[5] = system: ragweed (common ragweed, Ambrosia elatior); experiment: Test A preemergence, visual injury rating 0-100; type: in vivo
[6] = system: foxtail, giant (giant foxtail, Setaria faberii); experiment: Test A preemergence, visual injury rating 0-100; type: in vivo
[7] = system: ryegrass, Italian (Italian ryegrass, Lolium multiflorum); experiment: Test A postemergence, visual injury rating 0-100; type: in vivo; conditions: 0 to 100 scale
[8] = system: blackgrass (Alopecurus myosuroides); experiment: Test A postemergence, visual injury rating 0-100; type: in vivo; conditions: 0 to 100 scale
kochia (Kochia scoparia) [9] = experiment: Test A postemergence, visual injury rating 0-100; type: in vivo; conditions: 0 to 100 scale
[10] = system: pigweed (Amaranthus retroflexus); experiment: Test A postemergence, visual injury rating 0-100; type: in vivo; conditions: 0 to 100 scale
[11] = system: barnyardgrass (Echinochloa crus-galli); experiment: Test A postemergence, visual injury rating 0-100; type: in vivo; conditions: 0 to 100 scale
[12] = system: ragweed (common ragweed, Ambrosia elatior); experiment: Test A postemergence, visual injury rating 0-100; type: in vivo; conditions: 0 to 100 scale
corn (Zea mays) = experiment: Test A postemergence, visual injury rating 0-100; type: in vivo; conditions: 0 to 100 scale
[13] = system: foxtail, giant (giant foxtail, Setaria faberii); experiment: Test A postemergence, visual injury rating 0-100; type: in vivo; conditions: 0 to 100 scale
[14] = system: wheat (Triticum aestivum); experiment: Test A postemergence, visual injury rating 0-100; type: in vivo; conditions: 0 to 100 scale
[15] = system: galium (catchweed bedstraw, Galium aparine); experiment: Test A postemergence, visual injury rating 0-100; type: in vivo; conditions: 0 to 100 scale
[16] = system: barnyardgrass (Echinochloa crus-galli); experiment: Test B flooded paddy test, visual rating 0-100; conditions: Flood, 250 g ai/ha, applied to paddy water, rated after 13 to 15 days
[17] = system: ducksalad (Heteranthera limosa); experiment: Test B flooded paddy test, visual rating 0-100; conditions: Flood, 250 g ai/ha, applied to paddy water, rated after 13 to 15 days

Compound | Barnyardgrass plant response rating (0 to 100 scale) ([1]; 125 g ai/ha) | Barnyardgrass plant response rating (0 to 100 scale) ([1]; 500 g ai/ha) | Rice plant response rating (0 to 100 scale) (rice (Oryza sativa)) | Ryegrass, Italian plant response rating (0 to 100 scale) ([2]; 125 g ai/ha) | Ryegrass, Italian plant response rating (0 to 100 scale) ([2]; 500 g ai/ha) | Kochia plant response rating (0 to 100 scale) (kochia (Kochia scoparia) [3]; 125 g ai/ha) | Kochia plant response rating (0 to 100 scale) (kochia (Kochia scoparia) [3]; 500 g ai/ha) | Pigweed plant response rating (0 to 100 scale) ([4]; 125 g ai/ha) | Pigweed plant response rating (0 to 100 scale) ([4]; 500 g ai/ha) | Ragweed plant response rating (0 to 100 scale) ([5]; 125 g ai/ha) | Ragweed plant response rating (0 to 100 scale) ([5]; 500 g ai/ha) | Foxtail, Giant plant response rating (0 to 100 scale) ([6]; 125 g ai/ha) | Foxtail, Giant plant response rating (0 to 100 scale) ([6]; 500 g ai/ha) | Ryegrass, Italian plant response rating ([7]; 125 g ai/ha) | Ryegrass, Italian plant response rating ([7]; 500 g ai/ha) | Blackgrass plant response rating ([8]; 125 g ai/ha) | Blackgrass plant response rating ([8]; 500 g ai/ha) | Kochia plant response rating (kochia (Kochia scoparia) [9]; 125 g ai/ha) | Kochia plant response rating (kochia (Kochia scoparia) [9]; 500 g ai/ha) | Pigweed plant response rating ([10]; 125 g ai/ha) | other results
CC1=[N+]([O-])C(C(=O)Nc2cccc(F)c2F)C(c2cc(C)n(Cc3ccc(Cl)cc3)c(=O)c2)C1 (racemic) [Compound 86] | 0 | 0 | 0 | 0 | 0 | 0 | 0 | 0 | 0 | 0 | 0 | 0 | 0 | 0 | 0 | 0 | 0 | 0 | 0 | 0 | Pigweed plant response rating ([10]; 500 g ai/ha): 0; Barnyardgrass plant response rating ([11]; 125 g ai/ha): 0; Barnyardgrass plant response rating ([11]; 500 g ai/ha): 0; Ragweed plant response rating ([12]; 125 g ai/ha): 0; Ragweed plant response rating ([12]; 500 g ai/ha): 0; Corn plant response rating (corn (Zea mays); 125 g ai/ha): 0; Corn plant response rating (corn (Zea mays); 500 g ai/ha): 10; Foxtail, Giant plant response rating ([13]; 125 g ai/ha): 0; Foxtail, Giant plant response rating ([13]; 500 g ai/ha): 0; Wheat plant response rating ([14]; 125 g ai/ha): 0; Wheat plant response rating ([14]; 500 g ai/ha): 0; Galium plant response rating ([15]; 125 g ai/ha): 0; Galium plant response rating ([15]; 500 g ai/ha): 0; Barnyardgrass plant response rating (0 to 100 scale) [16]: 0; Ducksalad plant response rating (0 to 100 scale) [17]: 0
CC1=[N+]([O-])C(C(=O)Nc2cccc(F)c2F)C(c2ccc(C(F)(F)F)c(C)c2)C1 (racemic) [Compound 87] | 90 | 90 | 0 | 90 | 90 | 10 | 80 | 100 | 100 | 0 | 70 | 90 | 90 | 70 | 90 | 70 | 90 | 10 | 70 | 0 | Pigweed plant response rating ([10]; 500 g ai/ha): 50; Barnyardgrass plant response rating ([11]; 125 g ai/ha): 80; Barnyardgrass plant response rating ([11]; 500 g ai/ha): 90; Ragweed plant response rating ([12]; 125 g ai/ha): 10; Ragweed plant response rating ([12]; 500 g ai/ha): 30; Corn plant response rating (corn (Zea mays); 125 g ai/ha): 70; Corn plant response rating (corn (Zea mays); 500 g ai/ha): 80; Foxtail, Giant plant response rating ([13]; 125 g ai/ha): 60; Foxtail, Giant plant response rating ([13]; 500 g ai/ha): 90; Wheat plant response rating ([14]; 125 g ai/ha): 70; Wheat plant response rating ([14]; 500 g ai/ha): 80; Galium plant response rating ([15]; 125 g ai/ha): 0; Galium plant response rating ([15]; 500 g ai/ha): 70; Barnyardgrass plant response rating (0 to 100 scale) [16]: 50; Ducksalad plant response rating (0 to 100 scale) [17]: 85
CC1=[N+]([O-])C(C(=O)Nc2cccc(F)c2F)C(c2ccc(C(F)(F)F)cn2)C1 (racemic) [Compound 88] | 20 | 90 | 15 | 0 | 0 | 10 | 70 | 0 | 60 | 0 | 80 | 20 | 90 | 0 | 0 | 10 | 30 | 0 | 30 | 0 | Pigweed plant response rating ([10]; 500 g ai/ha): 0; Barnyardgrass plant response rating ([11]; 125 g ai/ha): 0; Barnyardgrass plant response rating ([11]; 500 g ai/ha): 50; Ragweed plant response rating ([12]; 125 g ai/ha): 0; Ragweed plant response rating ([12]; 500 g ai/ha): 10; Corn plant response rating (corn (Zea mays); 125 g ai/ha): 0; Corn plant response rating (corn (Zea mays); 500 g ai/ha): 0; Foxtail, Giant plant response rating ([13]; 125 g ai/ha): 0; Foxtail, Giant plant response rating ([13]; 500 g ai/ha): 10; Wheat plant response rating ([14]; 125 g ai/ha): 0; Wheat plant response rating ([14]; 500 g ai/ha): 0; Galium plant response rating ([15]; 125 g ai/ha): 20; Galium plant response rating ([15]; 500 g ai/ha): 50; Barnyardgrass plant response rating (0 to 100 scale) [16]: 15; Ducksalad plant response rating (0 to 100 scale) [17]: 100
